The assay has as its target T1, IRAK4 (Homo sapiens, UniProt Q9NWZ3).
T1 construct: endogenous in cells; host or cells: Karpas299
T1 sequence (Q9NWZ3 1-460): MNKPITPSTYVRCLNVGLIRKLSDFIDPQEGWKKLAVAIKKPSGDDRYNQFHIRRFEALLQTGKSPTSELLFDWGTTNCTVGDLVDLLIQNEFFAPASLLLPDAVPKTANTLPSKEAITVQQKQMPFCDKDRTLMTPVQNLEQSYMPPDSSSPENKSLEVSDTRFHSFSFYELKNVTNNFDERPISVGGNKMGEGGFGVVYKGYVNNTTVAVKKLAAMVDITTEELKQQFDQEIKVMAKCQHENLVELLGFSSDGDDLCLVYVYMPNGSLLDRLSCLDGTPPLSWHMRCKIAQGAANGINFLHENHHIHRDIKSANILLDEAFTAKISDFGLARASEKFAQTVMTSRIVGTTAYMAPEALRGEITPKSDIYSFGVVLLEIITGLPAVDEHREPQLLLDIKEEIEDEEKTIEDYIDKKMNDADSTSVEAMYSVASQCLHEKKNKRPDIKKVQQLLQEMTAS
Description: IRAK4 Degradation Assay (Karpas299, HTRF/TR-FRET). To be noted: Karpas-299 cells; for Dmax: maximum percentage of degradation. It counts as cell-based. On the procedure:
IRAK4 degradation was measured using a TR-FRET-based method (Degorce, François, et al. Current chemical genomics. 2009, 3: 22). Karpas299 maintained in RPMI 1640 medium (Thermo Scientific) supplemented with 20% fetal bovine serum (FBS, Thermo Scientific), 100 units/mL penicillin and 0.1 mg/mL streptomycin (Thermo Scientific) were seeded into 96-well plates at the density of 0.2 million cells per well and then treated with a series dilution of compounds. After 24 hours or 5 hours treatment, cells were pelleted via centrifugation and 40 μL lysis buffer (Cisbio) was added to each well after removal of the supernatant. Plates were then incubated at room temperature with shaking for 30 minutes. A total of 16 μL of cell lysates from each well of a 96-well plate was transferred to a 384-well white assay plate. IRAK4 level was quantitated using the HTRF kit as described by the manufacturer manual (Cisbio). FRET signals were measured using a PHERAstar FSX reader (BMG Labtech).
After treatment, add HTRF lysis buffer to each well; seal the plate and incubate 1 hour at room temperature on a plate shaker; Once the cells are lysed, 16 μL of cell lysate are transferred to a PE 384-well HTRF detection plate; 4 μL of pre-mixed HTRF antibodies are added to each well; Cover the plate with a plate sealer, spin 1000 rpm for 1 min, Incubate overnight at room temperature; Read on BMG PheraStar with HTRF protocol (337 nm-665 nm-620 nm).
The inhibition (degradation) percentage of the compound was calculated by the following equation: […]
The IC50 (DC50) value of a compound can be obtained by fitting the following equation
Wherein, X and Y are known values, and IC50, Hillslope, Top and Bottom are the parameters obtained by fitting with software. Y is the inhibition percentage (calculated from the equation), X is the concentration of the compound; IC50 is the concentration of the compound when the […] is reached. The smaller the IC50 value is, the stronger the inhibitory ability of the compound is. Vice versa, the higher the IC50 value is, the weaker the ability the inhibitory ability of the compound is; Hillslope represents the slope of the fitted curve, generally around 1 *; Bottom represents the minimum value of the curve obtained by data fitting, which is generally 0%±20%; Top represents the maximum value of the curve obtained by data fitting, which is generally 100%±20%. The experimental data were fitted by calculating and analyzing with Dotmatics data analysis software.
In general terms: Time-resolved FRET reads energy transfer from a long-lived donor to a nearby acceptor.

Where [1] appears, read: 5 h treatment, read-out: IRAK4 in Karpas-299 (5 h) Dmax (%).
The mark [2] stands for this setting: 5 h treatment, read-out: IRAK4 in Karpas-299 (5 h) DC50.
Where [3] appears, read: 24 h treatment, read-out: IRAK4 in Karpas-299 (24 h) Dmax (%).
[4] abbreviates: 24 h treatment, read-out: IRAK4 in Karpas-299 (24 h) DC50.

What is called Dmax is the greatest extent of degradation seen. As a reminder, the DC50 is the midpoint of the concentration-degradation curve.

Like-named read-outs stand apart in the source and are kept apart here.

Consider `O=C1CC[C@H](c2c(F)cc(N3CC[C@@H](C(=O)N4CCN([C@H]5CC[C@H](n6cc7cc(NC(=O)c8cccc(C(F)(F)F)n8)c(C(=O)N[C@H]8C[C@H](CO)C8)cc7n6)CC5)CC4)C3)cc2F)C(=O)N1` [Example 168, 2-((1R,4R)-4-(4-((R)-1-(4-((R)-2,6-dioxopiperidin-3-yl)-3,5-difluorophenyl)pyrrolidine-3-carbonyl)piperazin-1-yl)cyclohexyl)-N-((1r,3R)-3-(hydroxymethyl)cyclobutyl)-5-(6-(trifluoromethyl)picolinamido)-2H-indazole-6-carboxamide], for which the greatest degradation seen (Dmax) under setting [1] was found to be 87% and the greatest degradation seen (Dmax) under setting [3] is 100%. Also, the DC50 by setting is: under setting [2], 5.2 nM; under setting [4], 1.3 nM.

For `[2H]C([2H])([2H])Oc1cc2nn([C@H]3CC[C@H](N4CCN(C(=O)[C@@H]5CCN(c6cc(F)c(N7CCC(=O)NC7=O)c(F)c6)C5)CC4)CC3)cc2cc1NC(=O)c1cccc(C(F)(F)F)n1` [Example 174, N-(2-((1R,4r)-4-(4-((R)-1-(4-(2,4-dioxotetrahydropyrimidin-1(2H)-yl)-3,5-difluorophenyl)pyrrolidine-3-carbonyl)piperazin-1-yl)cyclohexyl)-6-(methoxy-d3)-2H-indazol-5-yl)-6-(trifluoromethyl)picolinamide], the Dmax under setting [3] was found to be 97%. Moreover, the DC50 under setting [4] was found to be 7.7 nM.

On to `O=C1CC[C@H](c2c(F)cc(N3CC(CN4CCN([C@H]5CC[C@H](n6cc(NC(=O)c7csc(-c8cn[nH]c8)n7)c(C(F)F)n6)CC5)CC4)C3)cc2F)C(=O)N1` [Example 435, N-(3-(difluoromethyl)-1-((1r,4r)-4-(4-((1-(4-((R)-2,6-dioxopiperidin-3-yl)-3,5-difluorophenyl)azetidin-3-yl)methyl)piperazin-1-yl)cyclohexyl)-1H-pyrazol-4-yl)-2-(1H-pyrazol-4-yl)thiazole-4-carboxamide], for which, under setting [3], the Dmax is 100%. Under setting [4], the DC50 turned out to be 0.4 nM.

For the compound `CC(C)(O)c1cc2nn([C@H]3CC[C@H](N4CCN(C5CCN(c6cc(F)c([C@H]7CCC(=O)NC7=O)c(F)c6)CC5)CC4)CC3)cc2cc1NC(=O)c1coc2cccnc12` [Example 405, N-(2-((1r,4r)-4-(4-(1-(4-((R)-2,6-dioxopiperidin-3-yl)-3,5-difluorophenyl)piperidin-4-yl)piperazin-1-yl)cyclohexyl)-6-(2-hydroxypropan-2-yl)-2H-indazol-5-yl)furo[3,2-b]pyridine-3-carboxamide], the greatest degradation seen (Dmax) under setting [3] was found to be 96%. Moreover, the DC50 under setting [4] turned out to be 0.9 nM.

With `CC(C)(O)c1cc2nn(C3CCN([C@H]4CCN(C(=O)C5CN(c6cc(F)c([C@H]7CCC(=O)NC7=O)c(F)c6)C5)CC4(F)F)CC3)cc2cc1NC(=O)c1ccc2cc(C#N)cnn12` [Example 287, 3-cyano-N-(2-((S)-1′-(1-(4-((R)-2,6-dioxopiperidin-3-yl)-3,5-difluorophenyl)azetidine-3-carbonyl)-3′,3′-difluoro-[1,4′-bipiperidin]-4-yl)-6-(2-hydroxypropan-2-yl)-2H-indazol-5-yl)pyrrolo[1,2-b]pyridazine-7-carboxamide], the Dmax under setting [3] was 94%. In addition, the DC50 under setting [4] turned out to be 1.9 nM.

`O=C1CCN(c2ccc(N3CC[C@@H](C(=O)N4CCN([C@H]5CC[C@H](n6cc(NC(=O)c7coc(-c8ccnc(NCC(F)(F)F)c8)n7)c(C(F)F)n6)CC5)CC4)C3)cc2)C(=O)N1` [Example 14, N-(3-(difluoromethyl)-1-((1R,4r)-4-(4-((R)-1-(4-(2,4-dioxotetrahydropyrimidin-1(2H)-yl)phenyl)pyrrolidine-3-carbonyl)piperazin-1-yl)cyclohexyl)-1H-pyrazol-4-yl)-2-(2-((2,2,2-trifluoroethyl)amino)pyridin-4-yl)oxazole-4-carboxamide]: the Dmax under setting [3] stood at 70%. Moreover, the DC50 under setting [4] turned out to be 3.4 nM.

Consider `NC(=O)c1nn([C@H]2CC[C@H](N3CCN(C(=O)C4CN(c5cc(F)c([C@H]6CCC(=O)NC6=O)c(F)c5)C4)CC3)CC2)cc1NC(=O)c1coc(-c2ccnc(NCC(F)(F)F)c2)n1` [Example 11, N-(3-carbamoyl-1-((1r,4r)-4-(4-(1-(4-((R)-2,6-dioxopiperidin-3-yl)-3,5-difluorophenyl)azetidine-3-carbonyl)piperazin-1-yl)cyclohexyl)-1H-pyrazol-4-yl)-2-(2-((2,2,2-trifluoroethyl)amino)pyridin-4-yl)oxazole-4-carboxamide], for which the Dmax runs as follows: under setting [1], 94%; under setting [3], 97%. Moreover, the DC50 amounted to 2.4 nM under setting [2] and 1.6 nM under setting [4].

Turning to `Cc1cc(-c2nc(C(=O)Nc3cn(-c4ccc(N5CCN(C(=O)C6CN(c7ccc(N8CCC(=O)NC8=O)cc7)C6)CC5)nc4)nc3C(N)=O)co2)ccn1` [Example 31, N-(3-carbamoyl-1-(6-(4-(1-(4-(2,4-dioxotetrahydropyrimidin-1(2H)-yl)phenyl)azetidine-3-carbonyl)piperazin-1-yl)pyridin-3-yl)-1H-pyrazol-4-yl)-2-(2-methylpyridin-4-yl)oxazole-4-carboxamide], the Dmax runs as follows: under setting [1], 89%; under setting [3], 96%. Besides, the DC50 by setting is: under setting [2], 8.2 nM; under setting [4], 5.8 nM.

Regarding `[2H]C([2H])([2H])Oc1cc2nn([C@H]3CC[C@H](N4CCN(C(=O)[C@@H]5CCN(c6cc(F)c([C@H]7CCC(=O)NC7=O)c(F)c6)C5)CC4)CC3)cc2cc1NC(=O)c1cccc(C(F)(F)F)n1` [Example 169, N-(2-((1R,4r)-4-(4-((R)-1-(4-((R)-2,6-dioxopiperidin-3-yl)-3,5-difluorophenyl)pyrrolidine-3-carbonyl)piperazin-1-yl)cyclohexyl)-6-(methoxy-d3)-2H-indazol-5-yl)-6-(trifluoromethyl)picolinamide], the maximal degradation (Dmax) was determined as 95% under setting [1] and 99% under setting [3]. In addition, the DC50 under setting [2] is 17 nM and the DC50 under setting [4] turned out to be 4.3 nM.

Turning to `O=C1CCN(c2c(F)cc(N3CC(C(=O)N4CCN([C@H]5CC[C@H](n6cc(NC(=O)c7cnn(-c8ccnc(NCC9CC9)c8)n7)c(C(F)F)n6)CC5)CC4)C3)cc2F)C(=O)N1` [Example 61, 2-(2-((cyclopropylmethyl)amino)pyridin-4-yl)-N-(3-(difluoromethyl)-1-((1r,4r)-4-(4-(1-(4-(2,4-dioxotetrahydropyrimidin-1(2H)-yl)-3,5-difluorophenyl)azetidine-3-carbonyl)piperazin-1-yl)cyclohexyl)-1H-pyrazol-4-yl)-2H-1,2,3-triazole-4-carboxamide], the Dmax reads like this: under setting [1], 86%; under setting [3], 96%. For the same compound, the 50% degradation concentration (DC50) runs as follows: under setting [2], 24 nM; under setting [4], 5 nM.

Take `CC(C)(O)c1cc2nn([C@H]3CC[C@H](N4CCN(CC(=O)N[C@@H](Cc5ccccc5)C(=O)NC5CCC(=O)NC5=O)CC4)CC3)cc2cc1NC(=O)c1ccc2cc(C#N)cnn12` (stereo partly drawn) [Example 439, 3-cyano-N-(2-((1S,4r)-4-(4-(2-(((2S)-1-((2,6-dioxopiperidin-3-yl)amino)-1-oxo-3-phenylpropan-2-yl)amino)-2-oxoethyl)piperazin-1-yl)cyclohexyl)-6-(2-hydroxypropan-2-yl)-2H-indazol-5-yl)pyrrolo[1,2-b]pyridazine-7-carboxamide]: the maximal degradation (Dmax) under setting [3] amounted to 58%. Further, the DC50 under setting [4] is 252 nM.

Values taken from patent publication US20250195513A1, “DEGRADATION OF IRAK4 BY CONJUGATION OF IRAK4 INHIBITORS WITH E3 LIGASE LIGAND AND METHODS OF USE” (BeiGene, Ltd., priority 2022, published 2025).
